# Experimental data taken from patent US5196352A, “New FK-506 cytosolic binding protein” (Merck & Co., Inc., priority 1991, dated 1993).
# Legend:
# [1] = molecular target: HCB protein PPIase activity (Homo sapiens, UniProt P62942); experiment: PPIase assay of HCB protein (N-succinyl-Ala-Ala-Pro-Phe-p-nitroanilide, chymotrypsin coupled)
# Method: (§1) Briefly, the PPIase assay measures the "cis" to "trans" isomerization of the proline-alanine peptide bond in the peptide, N-succinyl-Ala-Ala-Pro-Phe-p-nitroanilide. When in the "trans" form, the peptide is readily cleaved by chymotrypsin and the appearance of p-nitroanilide can be quantitated spectrophotometrically at 405 nm.
# (§2) After 1.0 minutes, 30 ul of 2.0 mg/ml chymotrypsin (Sigma) in 100 mM Tris-HCl, pH 7.8 was added. After brief mixing, the absorbance was monitored at 405 nm in either a Perkin-Elmer 4B or Beckman DU 68 spectrophotometer. Absorbance measurements were taken at 3 or 5 second intervals for 4 minutes. A plot of Abs405 [steady state]--Abs405[time=t] versus time was made on semi-log paper. From the straight line, the time constant for Abs405 [steady state]--Abs405 [time=t] to fall by l/e was calculated. The reciprocal of this constant yields the rate constant k.
# [2] = test system: cyclophilin PPIase activity; conditions: concentration of 1 uM
# Method: as §1, §2
# [3] = test system: low molecular weight cytosolic component; experiment: Direct binding of [3H]FK-506 to JURKAT cytosol, complex by HPLC gel filtration, competition with unlabeled compound; design: species or system human; conditions: 200 fold molar excess of unlabeled compound; 16 nM [3H]FK-506, 200 μg cytosol protein
# Method: A cell-free extract was prepared from JURKAT cells by lysing […] cells in 0.5 ml of 10 mM Tris-HCl, pH 7.5 containing 1 mM MgCl as described in the legend for FIG. 3.
# [4] = molecular target: purified calf thymus cyclophilin (Bos taurus, UniProt P62935); experiment: LH-20 binding assay with purified cyclophilin; conditions: for Bound (cpm), specifically bound: cyclophilin, 100 ng, 6.0 nM labeled compound
# JURKAT cytosol [5] = experiment: LH-20 binding assay with JURKAT cytosol; design: species or system human; conditions: for Bound (cpm), specifically bound: 0.5 nM labeled compound; for effect of heating on binding to JURKAT cytosol (in words): heated cytosol
# JURKAT cytosol [6] = molecular target: T1, JURKAT cytosol (Homo sapiens, UniProt P62942); experiment: LH-20 binding assay with JURKAT cytosol
# T1 construct: endogenous in cells; host or cells: JURKAT (human T-cell line), crude cytosol
# [7] = test system: IL-2 secretion in JURKAT cells; experiment: Inhibition of IL-2 secretion in JURKAT cells stimulated with PMA and ionomycin (ELISA); assay type: cell-based, human
# Method: Inhibition of IL-2 secretion in JURKAT cells stimulated with PMA and ionomycin by FK-506 and [^3 H]dihydro FK-506. JURKAT cells (equivalent to those available from the ATCC, supra) were cultured in RPMI 1640 media (Cellgro, Mediatech, Wash. D.C.) containing 1% Pen/Strep (Gibco), 1 mM Glutamine and 10% heat-inactivated fetal calf serum (Hazleton). For assay of IL-2 secretion by JURKAT cells, cells were cultured for 16 hr. in 96-well microtiter plates (Costar) at […] cells/ml in the above media containing 10 ng/ml of PMA (Sigma) and 5 μM ionomycin (Calbiochem) along with the concentrations of FK-506 or [^3 H]FK-506 indicated.
# [8] = JURKAT cytosol 40 μg heated 56 C., 15 min.
# Chain of purified calf thymus cyclophilin (P62935 whole entry): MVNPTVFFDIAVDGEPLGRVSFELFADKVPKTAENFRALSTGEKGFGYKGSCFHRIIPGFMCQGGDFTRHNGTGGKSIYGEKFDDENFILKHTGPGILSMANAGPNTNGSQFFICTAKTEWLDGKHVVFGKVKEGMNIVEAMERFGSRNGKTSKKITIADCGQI
# Chain of HCB protein PPIase activity (P62942 whole entry): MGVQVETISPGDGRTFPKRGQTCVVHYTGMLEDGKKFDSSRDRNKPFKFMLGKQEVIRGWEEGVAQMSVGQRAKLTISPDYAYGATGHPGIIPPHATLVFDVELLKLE
# T1 sequence (P62942 2-108): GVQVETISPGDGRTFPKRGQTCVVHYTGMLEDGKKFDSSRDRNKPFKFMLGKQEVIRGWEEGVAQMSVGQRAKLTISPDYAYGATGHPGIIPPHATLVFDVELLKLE
Compound,inhibition of HCB protein PPIase activity (in words) [1],inhibition of cyclophilin PPIase activity (in words) [2],inhibition of the formation of the [^3 H]FK-506 complex [3] [%],"Bound (cpm), specifically bound [4]","Bound (cpm), specifically bound (JURKAT cytosol [5]; [8])","Bound (cpm), specifically bound (JURKAT cytosol [5]; JURKAT cytosol, 40 μg)",effect of heating on binding to JURKAT cytosol (in words) (JURKAT cytosol [5]),specific binding to purified calf thymus cyclophilin (in words) ([4]; LH-20 assay),Kd (JURKAT cytosol [6]) [nM],"IC50 ([7]; Homo sapiens, Jurkat, 16 h, read-out: concentration of inhibiting IL-2 secretion in JURKAT) [nM]",inhibition of IL-2 secretion in JURKAT cells (in words) ([7]; PMA and ionomycin),"potency as inhibitor of IL-2 secretion, times less potent than the parent compound ([7]; relative to FK-506, JURKAT cells, PMA and ionomycin) [times]"
CCC[C@@H]1/C=C(\C)C[C@H](C)C[C@H](OC)[C@H]2O[C@@](O)(C(=O)C(=O)N3CCCC[C@H]3C(=O)O[C@H](/C(C)=C/[C@@H]3CC[C@@H](O)[C@H](OC)C3)[C@H](C)[C@@H](O)CC1=O)[C@H](C)C[C@@H]2OC [Dihydro-FK-506],specifically inhibits,,,,,,,,,,,
C=CC[C@@H]1/C=C(\C)C[C@H](C)C[C@H](OC)[C@H]2O[C@@](O)(C(=O)C(=O)N3CCCC[C@H]3C(=O)O[C@H](/C(C)=C/[C@@H]3CC[C@@H](O)[C@H](OC)C3)[C@H](C)[C@@H](O)CC1=O)[C@H](C)C[C@@H]2OC [FK-506],specifically inhibited,no effect,90,,,,,,,,,
"[3H]C(C)C([3H])C[C@@H](C)[C@@H](O)[C@H]1C(=O)N[C@@H](CC)C(=O)N(C)CC(=O)N(C)[C@@H](CC(C)C)C(=O)N[C@@H](C(C)C)C(=O)N(C)[C@@H](CC(C)C)C(=O)N[C@@H](C)C(=O)N[C@H](C)C(=O)N(C)[C@@H](CC(C)C)C(=O)N(C)[C@@H](CC(C)C)C(=O)N(C)[C@@H](C(C)C)C(=O)N1C (some centres unmarked) [[^3 H]CsA, [^3 H]-dihydro CsA]",,,,"20,988 cpm",0 cpm,"5,988 cpm",completely aborgated,,,,,
"[3H]CC([3H])C[C@@H]1/C=C(\C)C[C@H](C)C[C@H](OC)[C@H]2O[C@@](O)(C(=O)C(=O)N3CCCC[C@H]3C(=O)O[C@H](/C(C)=C/[C@@H]3CC[C@@H](O)[C@H](OC)C3)[C@H](C)[C@@H](O)CC1=O)[C@H](C)C[C@@H]2OC (some centres unmarked) [[^3 H]FK-506, [^3 H]-dihydro FK-506]",,,,0 cpm,"15,315 cpm","13,585 cpm",heat stable,could not detect specific binding,4,1.1,potent inhibitor,5
